One assay relates to ATF4. Nature of the assay: ATF4 expression inhibition assay (ATF4 5'UTR luciferase reporter, Tg-stressed HEK293T cells). The assay is classed as cell-based, human. As to conditions: Homo sapiens, HEK-293T, 3 h; for inhibition at 0.1 µM: read-out: % ATF4 inhibition at 100 nM; for IC50: read-out: ATF4 inhbition IC50; for inhibition at 1 µM: read-out: % ATF4 inhibition at 1 μM. Here is the method:
The ATF4 reporter was prepared by fusing the human full length 5′UTR of ATF4 (NCBI Accession No. BC022088.2) upstream of the firefly luciferase coding sequence lacking the initiator methionine. The fused sequence was cloned into pLenti-EF1a-C-Myc-DDK-IRES-Puro cloning vector (Origen #PS100085) using standard methods. Virus production was carried out by using Lenti-X™ Packaging Single Shots Protocol (Clonetech #631276). Viral particles were used to transduce HEK293T cells (ATCC #CRL-3216, ATCC Manassas, Va.), which were subsequently selected with puromycin to generate stable cell line. Cells were maintained at 37° C. and 5% CO2 in DMEM-F12 (Hyclone #SH30023.02) supplemented with 10% heat-inactivated fetal bovine serum (Gibco #16000-044), 2 mM L-glutamine (Gibco #25030-081), 100 U/ml penicillin, and 100 μg/ml streptomycin (Gibco #15140-122).
HEK293T cells carrying the ATF4 luciferase reporter were plated on 96-well plates (Nunc) at 10,000 cells per well. Cells were treated two days after seeding with 100 nM thapsigargin (Tg) (Sigma-Aldrich #T9033) in the presence of 100 nM or 1 μM. For the assessment of the half-maximal inhibitory concentration (IC50) for selected compounds, dose-response assays were performed. Compounds were serially diluted using DMSO ranging from 0.1 nM to 1 μM. Cells without treatment or cells treated with Tg alone were used as controls. Assay plates containing cells were incubated for 3 hours at 37° C.
Luciferase reactions were performed using Luciferase Assay System (Promega #E1501) as specified by the manufacturer. Luminescence was read with an integration time of 1 s and a gain of 110 using a Cytation-5 multi-mode microplate reader (BioTek). Relative luminescence units were normalized to Tg treatment (0% inhibition) and untreated cells (100% inhibition) and the percentage of ATF4 inhibition was calculated.
Percentages of ATF4 inhibition after induction with Tg in the presence of 100 nM or 1 μM of certain test compounds are shown in Table 2. Also shown in Table 2 is the calculated IC50 for certain test compounds. […] Accordingly, inhibition of ATF4 expression as a result of the test compound indicates suppression of the ISR pathway.
In general terms: Reporter assays use an easily measured gene product as a stand-in for the process of interest.

Assay [1] concerns Chinese hamster ovary (CHO) cells. As to the kind of experiment: Protein translation assay (puromycin labelling, CHO cells). As to conditions: media alone = 100%; for % Recovery of protein expression (100 nM test compound): 100 nM compound; for activity at 1 µM: Cricetulus griseus, CHO. The assay is classed as cell-based. As for the experimental part: Chinese hamster ovary (CHO) cells were maintained at 37° C. and 5% CO2 in Dulbecco's Modified Eagle's Media (DMEM) supplemented with 10% fetal bovine serum, 2 mM L-glutamine, 100 U/ml penicillin, and 100 μg/ml streptomycin. After reaching 80% of confluence, cells were detached and seeded on 6 well plates in complete media, allowed to recover overnight and treated for 2 hours with 1 μM of the test compound (to assess protein synthesis levels in unstressed condition), or for 1 hour with 100 nM or 1 μM of the test compound and then co-treated with 300 nM Tg and 100 nM or 1 μM of the test compound (to assess the recovery of protein synthesis in a stressed condition). Cells treated with Tg alone were used as controls.
After the 2 hours treatments, media were replaced by adding 10 μg/ml puromycin (Sigma Aldrich #P8833) in complete media for 30 min. Media were removed and cells were lysed with SDS-PAGE lysis buffer. Lysates were transferred to 1.5 ml tubes and sonicated for 3 min and total protein amount were quantified using BCA Protein Assay Kit (Pierce). Equal amount of protein (30 μg) was loaded on SDS-PAGE gels. Proteins were transferred onto 0.2 μm PVDF membranes (BioRad) and probed with primary antibodies diluted in Tris-buffered saline supplemented with 0.1% Tween 20 (Merck #S6996184 505) and 3% bovine serum albumin (Rockland #BSA-50).
Puromycin (12D10) (Merck #MABE343) and β-actin (Sigma Aldrich #A5441) antibodies were used as primary antibody. A HRP-conjugated secondary antibody (Rockland) was employed to detect immune-reactive bands using enhanced chemiluminescence (ECL Western Blotting Substrate, Pierce). Quantification of protein bands was done by densitometry using ImageJ software.
Percent increase of protein synthesis in unstressed cells (without Tg treatment) in the presence of media alone or certain test compounds is shown in Table 3 The percentage levels were normalized to the media alone condition, which correspond to 100% protein synthesis.
Percent recovery of protein synthesis in stressed cells (with Tg treatment) due to the test compounds at 100 nM or 1 μM is also shown in Table 3. The levels were normalized to the media alone and to Tg alone conditions, which correspond to 100% and 0% respectively.

Setting [2] is: 100 nM test compound, 100 nM thapsigargin, 3 hours, HEK293T ATF4 luciferase reporter.
The mark [3] stands for this setting: 100 nM thapsigargin, 3 hours, HEK293T ATF4 luciferase reporter.
The mark [4] stands for this setting: 1 μM test compound, 100 nM thapsigargin, 3 hours, HEK293T ATF4 luciferase reporter.
Setting [5] is: CHO cells stressed with 300 nM Tg, Tg alone = 0%.
[6] abbreviates: 2 h, unstressed CHO cells, 1 μM, 2 hours, read-out: % Protein synthesis in unstressed cells (1 μM test compound).
[7] abbreviates: CHO cells stressed with 300 nM Tg, 1 μM compound, Tg alone = 0%, read-out: % Recovery of protein expression (1 μM test compound).

Read-outs that look alike come from different tables or passages of the source.

Results on 13 compounds are retold here after patent US11166942B2 (PRAXIS BIOTECH LLC, priority 2018, dated 2021).

As for `O=C(COc1ccc(Cl)c(F)c1)NC1CCN(NC(=O)c2ccc3cc(Cl)ccc3n2)CC1` [Compound 1, 6-chloro-N-(4-(2-(4-chloro-3-fluorophenoxy)acetamido)piperidin-1-yl)quinoline-2-carboxamide], the inhibition at 0.1 µM with ATF4 (setting [2]) turned out to be 93.7%. Besides, the concentration for half-maximal inhibition (IC50) with ATF4 (setting [3]) was 3.6 nM. The inhibition at 1 µM in the assay on ATF4 (setting [4]) came to 97.9%. For the same compound, the “% Recovery of protein expression (100 nM test compound)” value (shortened to “% Recovery of protein expression”) in assay [1] (setting [5]) is 88.6%. The activity at 1 µM in assay [1] (setting [6]) turned out to be 112%; in assay [1] (setting [7]), 218%.
As for `O=C(COc1ccc(Cl)c(F)c1)NC1CCN(NC(=O)c2cc3cc(Cl)ccc3o2)CC1` [Compound 2, 5-chloro-N-(4-(2-(4-chloro-3-fluorophenoxy)acetamido)piperidin-1-yl)benzofuran-2-carboxamide], the inhibition at 0.1 µM in the assay on ATF4 (setting [2]) was determined as 87.1%. For the same compound, the IC50 in the assay with ATF4 (setting [3]) was found to be 18.4 nM. Further, the inhibition at 1 µM in the assay on ATF4 (setting [4]) was 97.6%. For the same compound, in assay [1] (setting [5]), the “% Recovery of protein expression” value stood at 40.2%. Also, the activity at 1 µM in assay [1] (setting [6]) amounted to 87.5%; in assay [1] (setting [7]) it was 123%.
Take `O=C(COc1ccc(Cl)c(F)c1)NN1CCC(NC(=O)c2ccc3cc(Cl)ccc3n2)CC1` [Compound 3, 6-chloro-N-(1-(2-(4-chloro-3-fluorophenoxy)acetamido)piperidin-4-yl)quinoline-2-carboxamide]: the inhibition at 0.1 µM with ATF4 (setting [2]) came to 88.1%. Further, in the assay with ATF4 (setting [3]), the 50% inhibitory concentration (IC50) was determined as 10.6 nM. Besides, the inhibition at 1 µM in the assay on ATF4 (setting [4]) stood at 92.2%. In addition, the “% Recovery of protein expression” value in assay [1] (setting [5]) amounted to 81.6%. The activity at 1 µM came to 152% in assay [1] (setting [6]) and 190% in assay [1] (setting [7]).
As to `O=C(COc1ccc(Cl)c(F)c1)NN1CCC(NC(=O)c2cc3cc(Cl)ccc3o2)CC1` [Compound 5, 5-chloro-N-(1-(2-(4-chloro-3-fluorophenoxy)acetamido)piperidin-4-yl)benzofuran-2-carboxamide], the inhibition at 0.1 µM in the assay on ATF4 (setting [2]) came to 85.7%. Moreover, the IC50 in the assay on ATF4 (setting [3]) stood at 18.8 nM. Also, in the assay on ATF4 (setting [4]), the inhibition at 1 µM stood at 93.7%. Also, the “% Recovery of protein expression” value in assay [1] (setting [5]) is −7.1%. In addition, the activity at 1 µM in assay [1] (setting [6]) amounted to 135%; in assay [1] (setting [7]), 110%.
Turning to `O=C(COc1ccc(Cl)c(F)c1)NN1CCN(CC(O)COc2ccc(Cl)c(F)c2)CC1` (stereo not shown) [Compound 6, 2-(4-chloro-3-fluorophenoxy)-N-(4-(3-(4-chloro-3-fluorophenoxy)-2-hydroxypropyl)piperazin-1-yl)acetamide], the inhibition at 0.1 µM in the assay on ATF4 (setting [2]) was 75.9%. Also, the 50% inhibitory concentration (IC50) in the assay on ATF4 (setting [3]) was found to be 30.8 nM. Moreover, the inhibition at 1 µM in the assay on ATF4 (setting [4]) came to 83.8%. In addition, the “% Recovery of protein expression” value in assay [1] (setting [5]) worked out at 16.7%. Also, the activity at 1 µM in assay [1] (setting [6]) is 97.9%; in assay [1] (setting [7]) it was 105%.
Consider `O=C(COc1ccc(Cl)c(F)c1)NN1CCC(NCC(O)COc2ccc(Cl)c(F)c2)CC1` (stereo not shown) [Compound 8, 2-(4-chloro-3-fluorophenoxy)-N-(4-((3-(4-chloro-3-fluorophenoxy)-2-hydroxypropyl)amino)piperidin-1-yl)acetamide], for which, in the assay on ATF4, the inhibition at 0.1 µM came to 44.2%, the inhibition at 1 µM is 70.9% and the 50% inhibitory concentration (IC50) is 153 nM. Besides, the activity at 1 µM in assay [1] (setting [6]) came to 121%. In assay [1] (setting [7]), the activity at 1 µM was found to be 52.1%.
As to `O=C(NN1CCN(CC(O)COc2ccc(Cl)c(F)c2)CC1)c1ccc2cc(Cl)ccc2c1` (stereo not shown) [Compound 14, 6-chloro-N-(4-(3-(4-chloro-3-fluorophenoxy)-2-hydroxypropyl)piperazin-1-yl)-2-naphthamide], in the assay on ATF4, the inhibition at 0.1 µM was determined as 89.3%, the inhibition at 1 µM was 98.9% and the half-inhibitory concentration (IC50) came to 10.2 nM. Moreover, the activity at 1 µM in assay [1] (setting [6]) came out at 139%. Besides, in assay [1] (setting [7]), the activity at 1 µM was determined as 175%.
The like results for `O=C(NN1CCN(CC(O)COc2ccc(Cl)c(F)c2)CC1)c1ccc2cc(Cl)ccc2n1` (stereo not shown) [Compound 15, 6-chloro-N-(4-(3-(4-chloro-3-fluorophenoxy)-2-hydroxypropyl)piperazin-1-yl)quinoline-2-carboxamide] were, in that order, 87.8%, 100%, 12.4 nM, 119% and 248%.
Turning to `O=C(COc1ccc(Cl)c(F)c1)NN1CCN(CCCOc2ccc(Cl)c(F)c2)CC1` [Compound 16, 2-(4-chloro-3-fluorophenoxy)-N-(4-(3-(4-chloro-3-fluorophenoxy)propyl)piperazin-1-yl)acetamide], in the assay on ATF4, the inhibition at 0.1 µM was 46.3%, the inhibition at 1 µM came out at 91.6% and the IC50 turned out to be 125 nM. The activity at 1 µM in assay [1] (setting [6]) was 66.1%. Further, the activity at 1 µM in assay [1] (setting [7]) is -5.5%.
Turning to `O=C(NN1CCN(CCCOc2ccc(Cl)c(F)c2)CC1)c1ccc2cc(Cl)ccc2n1` [Compound 17, 6-chloro-N-(4-(3-(4-chloro-3-fluorophenoxy)propyl)piperazin-1-yl)quinoline-2-carboxamide], in the assay on ATF4, the inhibition at 0.1 µM amounted to 58.6%, the inhibition at 1 µM is 92.7% and the IC50 worked out at 79.1 nM. The activity at 1 µM in assay [1] (setting [6]) was 117%. For the same compound, in assay [1] (setting [7]), the activity at 1 µM was determined as 188%.
As for `O=C(NN1CCN(CCCOc2ccc(Cl)c(F)c2)CC1)c1cc2cc(Cl)ccc2o1` [Compound 18, 5-chloro-N-(4-(3-(4-chloro-3-fluorophenoxy)propyl)piperazin-1-yl) benzofuran-2-carboxamide], in the assay on ATF4, the inhibition at 0.1 µM is 59.1%, the inhibition at 1 µM turned out to be 94.6% and the IC50 is 76.3 nM. Moreover, the activity at 1 µM in assay [1] (setting [6]) was 89.3%. For the same compound, the activity at 1 µM in assay [1] (setting [7]) amounted to 143%.
As for `O=C(NN1CCN(CC(O)COc2ccc(Cl)c(F)c2)CC1)c1cc2cc(Cl)ccc2o1` (stereo not shown) [Compound 19, 5-chloro-N-(4-(3-(4-chloro-3-fluorophenoxy)-2-hydroxypropyl)piperazin-1-yl)benzofuran-2-carboxamide], in the assay on ATF4, the inhibition at 0.1 µM was 87.3%, the inhibition at 1 µM is 95.8% and the half-inhibitory concentration (IC50) came out at 11.5 nM. Further, the activity at 1 µM in assay [1] (setting [6]) worked out at 115%. For the same compound, the activity at 1 µM in assay [1] (setting [7]) came out at 175%.
The like results for `O=C(NN1CCC(NCC(O)COc2ccc(Cl)c(F)c2)CC1)c1ccc2cc(Cl)ccc2n1` (stereo not shown) [Compound 20, 6-chloro-N-(4-((3-(4-chloro-3-fluorophenoxy)-2-hydroxypropyl)amino)piperidin-1-yl)quinoline-2-carboxamide] were, in that order, 24.7%, 33.7%, > 10000 nM, 155% and 358%.

In general, inhibition refers to how much of the control response was suppressed. For orientation: IC50 means the concentration needed to halve the response being measured.
